Experiments:
[1] = tested on: lesion region having an aldosterone-producing tumor site (human adrenal section); assay: In vitro autoradiography using human adrenal tumor: binding ability to lesion region; conditions: for B2, binding ability to a lesion region, ratio to reference compound: relative to [123I]IMTO = 1, human plasma, 37° C., 10 minutes; for concentration shown at the lesion sites on autoradiograms (FIG. 1): Samples 1 to 6, compared with Compound [18F]100
Protocol: (§1) By using a frozen human adrenal tissue specimen containing a lesion region having an aldosterone-producing tumor site, and a normal region in an adjacent part to the lesion region, in vitro autoradiography was performed. Specifically, a slide glass on which a section prepared by embedding the specimen in an embedding medium for preparing a frozen tissue section (Tissue-Tek O.C.T. Compound, manufactured by Sakura Finetek Japan Co., Ltd.), and thinly cutting the embedded specimen of human adrenal tissue to have a thickness of 7 μm had been pasted (stored at −80° C., hereinafter, referred to as human adrenal section) was used for experiment.
(§2) A solution of each of Compounds [^18F]100, [^18F]101, [^18F]102, and […], which had been obtained in Reference Example 2, Example 2, 4, or 6, and Compound [^123I]IMTO (reference compound) was dispensed into a vial, and the amount of radioactivity was measured by a radioisotope dose calibrator (CRC-15R, manufactured by Capintec, Inc.) The radioactive concentration of a solution that had been prepared by adding each solution obtained above to human plasma (hereinafter referred to as reaction mixture) was measured by using an autowell gamma system (ARC-7001, manufactured by Hitachi, Ltd.).
(§3) For preincubation, a human adrenal section was immersed in phosphate-buffered saline (PBS) at 37° C. for 5 minutes, and then immersed in human plasma at 37° C. for 5 minutes. Next, as a reaction step, the human adrenal section was immersed in the reaction mixture at 37° C. for 10 minutes. After that, the human adrenal section was washed with human plasma five times at 37° C. for 2 minutes, and then air-dried. Further, a piece of filter paper, which had been cut out into a circular shape and had been pasted on a slide glass, was impregnated with a known amount of the reaction mixture, and then air dried, and the resultant piece was used as a standard radiation source.
(§4) The air-dried human adrenal section and the air-dried standard radiation source were exposed to an imaging plate (BAS-SR2040, manufactured by Fujifilm Corporation) (IP sheet), and autoradiograms were obtained by a fluoro image analyzer (Typhoo FLA 7000 IP, manufactured by GE Healthcare Japan Corporation). A region of interest (ROI) was set in each of the lesion region and normal region obtained on the autoradiograms, and the radiation count was determined. The ROI was also set for the standard radiation source, and the radiation count was determined.
(§5) For the autoradiograms obtained for the human adrenal section, the radiation count (correction value) of each region (lesion region or normal region) was determined as in formula (1) as a correction value to the standard radiation source.
(§6) The binding ability of the compound according to the present invention (each of Compounds [^18F]101, [^18F]102, and [^18F]103) to each region (lesion region or normal region) was determined as in formulas (2) and (3) as the relative value in a case where the radiation count (correction value) in each region of ^[123I]IMTO (reference compound) was set to 1. Further, the lesion/normal ratio was determined as in formula (4).

[2] = tested on: normal region in an adjacent part to the lesion region (human adrenal section); assay: In vitro autoradiography using human adrenal tumor: binding ability to normal region; conditions: relative to [123I]IMTO = 1, human plasma, 37° C., 10 minutes
Protocol: as §1, §2, §3, §4, §5, §6

[3] = Pharmacokinetic distribution experiment (PET, SUV of liver, kidney, spleen); format: in vivo, normal rats; conditions: FIG. 2; for radioactivity accumulation in tissues (the liver, kidney, and spleen) surrounding the adrenal glands: PET SUV at 60 minutes and 180 minutes after the administration; for high radioactivity accumulation that would be an obstacle in the adrenal gland imaging: liver, kidney, spleen, 60 and 180 minutes after the administration
Protocol: The compounds according to the present invention (Compounds [^18F]101, [^18F]102, and [^18F]103) were administered to three normal rats without anesthesia. Imaging data for 15 minutes under isoflurane anesthesia were collected at 60 minutes and 180 minutes after the administration. The imaging data were subjected to image reconstruction by a positron emission tomography (PET) device (instrument: eXplore VISTA, manufactured by GE Healthcare Japan Corporation), and then a volume of interest (VOI) was set in each of the liver, kidney, and spleen, and a standardized uptake value (SUV) of each tissue was determined as in formula (5).

B2/B1, lesion/normal ratio ([1]; Sample 1)	B2, binding ability to a lesion region, ratio to reference compound ([1]; Sample 1)	B2/B1, lesion/normal ratio ([1]; Sample 2)	B2, binding ability to a lesion region, ratio to reference compound ([1]; Sample 2)	B2/B1, lesion/normal ratio ([1]; Sample 3)	B2, binding ability to a lesion region, ratio to reference compound ([1]; Sample 3)	B2/B1, lesion/normal ratio ([1]; Sample 4)	B2, binding ability to a lesion region, ratio to reference compound ([1]; Sample 4)	B2/B1, lesion/normal ratio ([1]; Sample 5)	B2, binding ability to a lesion region, ratio to reference compound ([1]; Sample 5)	B2/B1, lesion/normal ratio ([1]; Sample 6)	B2, binding ability to a lesion region, ratio to reference compound ([1]; Sample 6)	B1, binding ability to a normal region, ratio to reference compound ([2]; Sample 1)	B1, binding ability to a normal region, ratio to reference compound ([2]; Sample 2)	B1, binding ability to a normal region, ratio to reference compound ([2]; Sample 3)	B1, binding ability to a normal region, ratio to reference compound ([2]; Sample 4)	B1, binding ability to a normal region, ratio to reference compound ([2]; Sample 5)	B1, binding ability to a normal region, ratio to reference compound ([2]; Sample 6)	radioactivity accumulation in tissues (the liver, kidney, and spleen) surrounding the adrenal glands [3]	Structure (SMILES)	concentration shown at the lesion sites on autoradiograms (FIG. 1) [1]	further results
14.44	0.19	19.66	0.24	8.44	0.32	8.28	0.21	14.94	0.13	37.80	0.45	0.00	0.01	0.03	0.01	0.01	0.01	decreased over time	Fc1ccc2nc(-c3cncc(Cn4ccnc4)c3)n(CC[18F])c2c1 [Compound [^18F]101, 6-fluoro-1-(2-[^18F]fluoroethyl)-2-[5-(imidazol-1-ylmethyl)pyridin-3-yl]benzimidazole]	higher concentration than that of Compound [^18F]100	high radioactivity accumulation that would be an obstacle in the adrenal gland imaging [3]: not observed
6.78	0.19	8.69	0.31	8.20	0.65	4.32	0.41	9.21	0.14	23.93	0.63	0.01	0.03	0.05	0.05	0.01	0.03	decreased over time	Fc1cc2nc(-c3cncc(Cn4ccnc4)c3)n(CC[18F])c2cc1F [Compound [^18F]102, 5,6-difluoro-1-(2-[^18F]fluoroethyl)-2-[5-(imidazol-1-ylmethyl)pyridin-3-yl]benzimidazole]	higher concentration than that of Compound [^18F]100	high radioactivity accumulation that would be an obstacle in the adrenal gland imaging [3]: not observed
4.57	0.23	12.05	0.46	2.68	0.79	2.03	0.33	5.17	0.29	15.42	1.09	0.02	0.04	0.20	0.08	0.04	0.07	decreased over time	N#Cc1cc2c(cc1F)nc(-c1cncc(Cn3ccnc3)c1)n2CC[18F] [Compound [^18F]103, 2-[5-(1H-imidazol-1-ylmethyl)pyridin-3-yl]-5-fluoro-1-(2-[^18F]fluoroethyl)-1H-benzo[d]imidazole-6-carbonitrile]	higher concentration than that of Compound [^18F]100	high radioactivity accumulation that would be an obstacle in the adrenal gland imaging [3]: not observed

From US11266753B2, “2-[5-(imidazol-1-ylmethyl)pyridin-3-yl]benzimtdazole derivative compound, and medicament including same” (Nihon Medi-Physics Co., Ltd., priority 2017, dated 2022)
